Columns and labels:
[1] = biological target: T1, unphosphorylated VEGF-R2Δ50 (Homo sapiens, UniProt P35968, DEL940-989/E990V); experiment: VEGF-R2 coupled spectrophotometric assay, unphosphorylated construct (FLVK); format: biochemical; details: % inhibition at 50 nM compound; read-out: FLVK Ki % inh @ 50 nM
T1 construct: VEGF-R2Δ50 contains residues 806–939 and 990–1171; made in house; host or cells: baculovirus/insect cell system
Summary of the method: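 Human VEGF-R2Δ50 kinase (residues 806–939/990–1171, baculovirus-expressed; autophosphorylated form pre-treated with 3 mM ATP, 4° C, 2 h), 5–40 nM, with poly(E4Y1) in 200 mM HEPES pH 7.5; ADP coupled via PK/LDH to NADH oxidation at 340 nm. Phosphorylated: 1 mM ATP, 5.1 mM poly(E4Y1), 25 mM MgCl2; unphosphorylated: 3 mM ATP, 20 mM poly(E4Y1), 60 mM MgCl2, 2 mM MnCl2. Ki from activity at varying compound levels.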

PDGFRβ = biological target: T2, PDGFRβ (Homo sapiens, UniProt P09619); experiment: PAE-PDGFRβ Phosphorylation in PAE-PDGFRB Cells Assay; format: cell-based; details: PAE cells overexpressing human PDGFRβ; read-out: PAE PDGFR autophos IC50
T2 construct: expressed in transfected cells; host or cells: porcine aorta endothelial (PAE) cells
Summary of the method: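 PAE cells overexpressing human PDGFRβ, serum-starved 16 h (0.1% FBS), compound 1 h at 37° C (0.5% DMSO), then 1 μg/mL PDGF-BB with 2 mM Na3VO4 for 8 min. Receptor captured by anti-PDGFRβ, phosphotyrosine detected by HRP-PY20/TMB at 450 nm; IC50 by four-parameter fit.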

HUVEC = experiment: bFGF Huvec; format: cell-based; details: Homo sapiens
LCK = biological target: T3, LCK (Homo sapiens, UniProt P06239, C224D/P223M); experiment: Lymphocyte-Specific Protein-Tyrosine Kinase (LCK) spectrophotometric assay; format: biochemical; details: 1 μM compound; read-out: LckP* % inhibit @1 μM
T3 construct: starting from amino acid residue 223 to the end of the protein at residue 509; made in house; host or cells: insect cells

[2] = biological target: T4, phosphorylated VEGF-R2Δ50 (Homo sapiens, UniProt P35968, DEL940-989/E990V); experiment: VEGF-R2 coupled spectrophotometric (FLVK-P) assay, phosphorylated construct; format: biochemical; details: Ki (nM)
T4 construct: VEGF-R2Δ50 contains residues 806–939 and 990–1171; made in house; host or cells: baculovirus/insect cell system
Excerpt: This construct determines the ability of a test compound to inhibit tyrosine kinase activity. A construct (VEGF-R2Δ50) of the cytosolic domain of human vascular endothelial growth factor receptor 2 (VEGF-R2) lacking the 50 central residues of the 68 residues of the kinase insert domain was expressed in a baculovirus/insect cell system. Of the 1356 residues of full-length VEGF-R2, VEGF-R2Δ50 contains residues 806–939 and 990–1171, and also one point mutation (E99OV) within the kinase insert domain relative to wild-type VEGF-R2. Autophosphorylation of the purified construct was performed by incubation of the enzyme at a concentration of 4 μM in the presence of 3 mM ATP and 40 mM MgCl2 in 100 mM HEPES, pH 7.5, containing 5% glycerol and 5 mM DTT, at 4° C. for 2 h. […] See Parast et al., Biochemistry, 37,16788–16801 (1998).
The production of ADP from ATP that accompanies phosphoryl transfer was coupled to oxidation of NADH using phosphoenolpyruvate (PEP) and a system having pyruvate kinase (PK) and lactic dehydrogenase (LDH). The oxidation of NADH was monitored by following the decrease of absorbance at 340 nm (e340=6.22 cm^−1 mM^−1) using a Beckman DU 650 spectrophotometer. […] Ki values were determined by measuring enzyme activity in the presence of varying concentrations of test compounds. The data were analyzed using Enzyme Kinetic and Kaleidagraph software.

T2 sequence (P09619 33-1106): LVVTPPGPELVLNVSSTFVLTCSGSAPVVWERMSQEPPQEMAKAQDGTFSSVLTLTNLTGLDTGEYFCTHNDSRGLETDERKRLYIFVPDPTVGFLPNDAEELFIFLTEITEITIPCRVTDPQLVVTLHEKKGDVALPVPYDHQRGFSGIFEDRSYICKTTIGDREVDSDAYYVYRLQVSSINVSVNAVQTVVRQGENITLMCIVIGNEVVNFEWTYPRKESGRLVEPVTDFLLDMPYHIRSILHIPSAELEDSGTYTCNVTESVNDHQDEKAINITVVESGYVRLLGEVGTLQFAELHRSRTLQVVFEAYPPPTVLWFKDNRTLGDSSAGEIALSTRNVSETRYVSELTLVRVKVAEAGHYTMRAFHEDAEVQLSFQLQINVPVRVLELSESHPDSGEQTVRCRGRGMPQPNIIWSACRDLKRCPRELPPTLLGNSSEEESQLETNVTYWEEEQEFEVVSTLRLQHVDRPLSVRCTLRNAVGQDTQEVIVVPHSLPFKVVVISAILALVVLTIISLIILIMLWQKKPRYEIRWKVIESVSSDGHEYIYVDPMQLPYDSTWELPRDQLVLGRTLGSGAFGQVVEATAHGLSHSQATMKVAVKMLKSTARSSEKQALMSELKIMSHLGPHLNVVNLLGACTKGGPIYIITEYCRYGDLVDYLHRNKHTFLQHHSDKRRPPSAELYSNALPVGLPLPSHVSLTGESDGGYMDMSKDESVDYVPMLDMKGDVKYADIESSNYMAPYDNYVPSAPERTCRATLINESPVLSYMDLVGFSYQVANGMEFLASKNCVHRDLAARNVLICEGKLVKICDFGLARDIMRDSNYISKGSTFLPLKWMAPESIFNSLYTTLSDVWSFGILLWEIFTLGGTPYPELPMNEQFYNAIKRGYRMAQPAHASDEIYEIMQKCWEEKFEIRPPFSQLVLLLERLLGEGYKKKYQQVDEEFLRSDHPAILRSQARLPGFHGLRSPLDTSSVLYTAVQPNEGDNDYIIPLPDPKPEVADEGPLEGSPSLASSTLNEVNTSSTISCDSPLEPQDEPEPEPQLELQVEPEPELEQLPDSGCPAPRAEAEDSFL
T1 sequence (P35968 with tags, fused parts or gaps DEL940-989/E990V limits assumed): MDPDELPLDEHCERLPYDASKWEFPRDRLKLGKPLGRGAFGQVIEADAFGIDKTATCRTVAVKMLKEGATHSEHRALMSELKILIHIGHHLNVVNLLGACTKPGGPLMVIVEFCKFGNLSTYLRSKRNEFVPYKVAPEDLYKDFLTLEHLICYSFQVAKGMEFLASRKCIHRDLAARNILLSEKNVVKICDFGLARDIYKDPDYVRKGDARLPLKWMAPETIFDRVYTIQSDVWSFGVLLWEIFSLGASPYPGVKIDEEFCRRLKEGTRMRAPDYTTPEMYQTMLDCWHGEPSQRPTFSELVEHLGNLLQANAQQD
T3 sequence (P06239 223-509 P223M/C224D): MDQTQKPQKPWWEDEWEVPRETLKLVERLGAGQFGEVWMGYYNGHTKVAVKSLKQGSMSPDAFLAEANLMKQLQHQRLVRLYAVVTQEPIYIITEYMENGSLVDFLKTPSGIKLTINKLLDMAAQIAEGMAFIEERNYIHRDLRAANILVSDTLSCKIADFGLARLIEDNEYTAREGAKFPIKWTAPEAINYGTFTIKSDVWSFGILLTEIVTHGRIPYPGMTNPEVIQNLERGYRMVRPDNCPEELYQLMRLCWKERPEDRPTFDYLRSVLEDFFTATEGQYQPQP
T4 sequence (P35968 with tags, fused parts or gaps DEL940-989/E990V limits assumed): as the sequence (P35968 with tags, fused parts or gaps DEL940-989/E990V limits assumed) above

SMILES: Cc1ccnc(/C=C/c2n[nH]c3cc(Nc4ccccc4C(=O)NC4CC4)ccc23)c1 [Example 2(h), N-Cyclopropyl-2-{3-[(E)-2-(4-methyl-pyridin-2-yl)-vinyl]-1H-indazol-6-ylamino}-benzamide]
- inhibition at 0.05 µM [1]: 84%
- IC50 (PDGFRβ): 2.8 nM
- IC50 (HUVEC): 70 nM

SMILES: O=C(NC1CC1)c1ccccc1Nc1ccc2c(/C=C/c3ccccn3)n[nH]c2c1 [Example 3(d), N-Cyclopropyl-2-[3-((E)-2-pyridin-2-yl-vinyl)-1H-indazol-6-ylamino]-benzamide]
- inhibition at 0.05 µM [1]: 89%
- inhibition at 1 µM (LCK): 11%
- IC50 (PDGFRβ): 3.5 nM
- IC50 (HUVEC): 147 nM

SMILES: COc1ccccc1CNC(=O)c1ccccc1Nc1ccc2c(/C=C/c3ccccn3)n[nH]c2c1 [Example 3(h), N-(2-Methoxy-benzyl)-2-[3-((E)-2-pyridin-2-yl-vinyl)-1H-indazol-6-ylamino]-benzamide]
- inhibition at 0.05 µM [1]: 96%
- inhibition at 1 µM (LCK): 37%
- IC50 (PDGFRβ): 0.63 nM

SMILES: O=C(NC1CCC1)c1ccccc1Nc1ccc2c(/C=C/c3ccccn3)n[nH]c2c1 [Example 3(j), N-Cyclobutyl-2-[3-((E)-2-pyridin-2-yl-vinyl)-1H-indazol-6-ylamino]-benzamide]
- inhibition at 0.05 µM [1]: 80%
- inhibition at 1 µM (LCK): 17%
- IC50 (PDGFRβ): 4.7 nM

SMILES: C=C(C)CNC(=O)c1ccccc1Nc1ccc2c(/C=C/c3ccccn3)n[nH]c2c1 [Example 3(k), N-(2-Methyl-allyl)-2-[3-((E)-2-pyridin-2-yl-vinyl)-1H-indazol-6-ylamino]-benzamide]
- inhibition at 0.05 µM [1]: 74%
- inhibition at 1 µM (LCK): 19%
- IC50 (PDGFRβ): 5 nM
- IC50 (HUVEC): 1000 nM

SMILES: Cc1cc(C)nc(/C=C/c2n[nH]c3cc(Nc4ccccc4C(=O)NCC#CCO)ccc23)c1 [Example 10, 2-{3-[(E)-2-(4,6-Dimethyl-pyridin-2-yl)-vinyl]-1H-indazol-6-ylamino}-N-(4-hydroxy-but-2-ynyl)-benzamide]
- inhibition at 0.05 µM [1]: 76%
- Ki [2]: 6.07 nM
- IC50 (PDGFRβ): 21 nM

SMILES: C#CCNC(=O)c1ccccc1Nc1ccc2c(/C=C/c3cc(C)ccn3)n[nH]c2c1 [Example 32, 2-{3-[(E)-2-(4-Methyl-pyridin-2-yl)-vinyl]-1H-indazol-6-ylamino}-N-prop-2-ynyl-benzamide]
- inhibition at 0.05 µM [1]: 78%
- IC50 (PDGFRβ): 0.5 nM

SMILES: O=C(NCC#CCO)c1ccccc1Nc1ccc2c(/C=C/c3ccccn3)n[nH]c2c1 [Example 64, N-(4-Hydroxy-but-2-ynyl)-2-[3-(2-pyridin-2-yl-vinyl)-1H-indazol-6-ylamino]-benzamide]
- inhibition at 0.05 µM [1]: 94%
- IC50 (PDGFRβ): 5.5 nM
- IC50 (HUVEC): 1250 nM
